Laboratory results published in the supplement of paper PMC10307832.

How the values were obtained:
Test in all cases: relative viability (nuclei count vs DMSO), 5 days (fraction); higher = more cells survive
BI-2536 + Navitoclax = compound: CC[C@@H]1C(=O)N(C)c2cnc(Nc3ccc(C(=O)NC4CCN(C)CC4)cc3OC)nc2N1C1CCCC1 [BI-2536] + CC1(C)CCC(c2ccc(Cl)cc2)=C(CN2CCN(c3ccc(C(=O)NS(=O)(=O)c4ccc(N[C@H](CCN5CCOCC5)CSc5ccccc5)c(S(=O)(=O)C(F)(F)F)c4)cc3)CC2)C1 [Navitoclax] (partner 0.5 µM)
In short: (§1)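 Values are medians from duplicate plates. Each reflects relative viability, defined as the nuclei count of treated wells over that of vehicle wells. Lung cancer cell lines in 1536-well plates were pin-tool dosed one day after seeding with one drug alone or with a fixed anchor-drug dose plus five library-drug doses (not always all listed) in √10 steps, then fixed, stained and imaged at 4× after 5 days.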

BI-2536 + Lapatinib = compound: CC[C@@H]1C(=O)N(C)c2cnc(Nc3ccc(C(=O)NC4CCN(C)CC4)cc3OC)nc2N1C1CCCC1 [BI-2536] + CS(=O)(=O)CCNCc1ccc(-c2ccc3ncnc(Nc4ccc(OCc5cccc(F)c5)c(Cl)c4)c3c2)o1 [Lapatinib] (partner 2 µM)
In short: as §1

NPK76-II-72-1 + OSI-027 = compound: CC1CC(=O)N(C2=CN=C(N=C2N1C3CCCC3)NC4=C(C=C(C=C4)C(=O)NC5CCN(CC5)C)OC)C [NPK76-II-72-1] + COc1cccc2cc(-c3nc([C@H]4CC[C@H](C(=O)O)CC4)n4ncnc(N)c34)[nH]c12 [OSI-027] (partner 0.5 µM)
In short: as §1

[1] = compound: CC1CC(=O)N(C2=CN=C(N=C2N1C3CCCC3)NC4=C(C=C(C=C4)C(=O)NC5CCN(CC5)C)OC)C [NPK76-II-72-1] + CC1(C)CCC(c2ccc(Cl)cc2)=C(CN2CCN(c3ccc(C(=O)NS(=O)(=O)c4ccc(N[C@H](CCN5CCOCC5)CSc5ccccc5)c(S(=O)(=O)C(F)(F)F)c4)cc3)CC2)C1 [Navitoclax] (partner 0.5 µM)
In short: as §1

UMC-11 gave a relative viability (BI-2536 + Navitoclax; first compound 0.01 µM) of 0.279, a relative viability (BI-2536 + Navitoclax; first compound 0.03162 µM) of 0.286 and a relative viability (BI-2536 + Navitoclax; first compound 0.1 µM) of 0.166. It also gave a relative viability (BI-2536 + Navitoclax; first compound 0.3162 µM) of 0.136, a relative viability (BI-2536 + Navitoclax; first compound 1 µM) of 0.112 and a relative viability (BI-2536 + Lapatinib; first compound 0.01 µM) of 1.02. The relative viability (BI-2536 + Lapatinib; first compound 0.03162 µM) was 0.765, the relative viability (BI-2536 + Lapatinib; first compound 0.1 µM) was 0.132 and the relative viability (BI-2536 + Lapatinib; first compound 0.3162 µM) was 0.17. For the same cell line, the relative viability (BI-2536 + Lapatinib; first compound 1 µM) was 0.18, the relative viability (NPK76-II-72-1 + OSI-027; first compound 0.01 µM) was 0.435 and the relative viability (NPK76-II-72-1 + OSI-027; first compound 0.03162 µM) was 0.424. It also gave a relative viability (NPK76-II-72-1 + OSI-027; first compound 0.1 µM) of 0.521, a relative viability (NPK76-II-72-1 + OSI-027; first compound 1 µM) of 0.47 and a relative viability ([1]; first compound 0.01 µM) of 0.313. For the same cell line, the relative viability ([1]; first compound 0.03162 µM) was 0.276, the relative viability ([1]; first compound 0.1 µM) was 0.302 and the relative viability ([1]; first compound 0.3162 µM) was 0.305. It also gave a relative viability ([1]; first compound 1 µM) of 0.357.
